Test results as given in patent US20030113901A1, “Cell production” (priority 2000, published 2003).

How the values were obtained:
[1] = tested on: in vitro-derived neurectoderm (EBM7); assay: Immunohistochemistry, TH: dopaminergic neuron formation from in vitro-derived neurectoderm (EBM7); assay type: cell-based; settings: EBM7s, 10 ng/ml NGF days 7-10, 200 μM dopamine days 10-14 where present, day 14
Procedure: FIG. 2: The culture of in vitro-derived neurectoderm in the presence of NGF and dopamine increases dopaminergic neuron formation. EBM^7s were seeded for 3 days in 50% DMEM/F12, 10 ng/ml FGF2, 0.1% ITSS, 1% FCS, and 10 ng/ml NGF, and for an additional 4 days in DMEM/F12, 0.1% ITSS, 200 μM ascorbic acid, with or without 200 μM dopamine. The resulting EBMs were analysed by immunohistochemistry using an anti-TH antibody. Positive staining for TH (dark regions) indicated dopaminergic neurons. A, EBM^7s cultured in the absence of NGF and dopamine; B, EBM^7s cultured in the presence of NGF; C, EBM^7s cultured in the presence of NGF and dopamine.
(§1) EBs were grown in the presence of the conditioned medium MEDII for 7 days (EBM^7) as previously described in International Patent Application PCT/AU99/00265 to applicants, the entire disclosure of which is incorporated herein by reference.
(§2) ES cells were seeded at a density of 1×10^5 cells/cm^2 In suspension culture in bacterial petri dishes in DMEM containing 50% MEDII. DMEM is defined as Dulbecco's Modified Eagles Medium (Gibco BRL), pH 7.4, containing high glucose and supplemented with 10% foetal calf serum (FCS; Commonwealth Serum Laboratories), 40 μg/ml gentamycin, 1 mM L-glutamine, 0.1 mM β-mercaptoethanol (β-ME). […]
(§3) Antibody staining for NF200 and tyrosine hydroxylase (TH) was detected by alkaline phoaphatase activity. […]

[2] = tested on: in vitro-derived neurectoderm (EBM7); assay: Immunohistochemistry, NF200: neuron formation from in vitro-derived neurectoderm (EBM7); assay type: cell-based; settings: EBM7s grown in the presence of 10 ng/ml NGF vs absence; anti-NF200 antibody, day 14
Procedure: FIG. 1: The culture of in vitro-derived neurectoderm in the presence of NGF increases neuron formation. EBM^7s were seeded for 3 days in 50% DMEM/F12, 10 ng/ml FGF2, 0.1% ITSS, 1% FCS, in the presence or absence of 10 ng/ml NGF, and for an additional 4 days in 50% DMEM/F12, 0.1% ITSS. The resulting EBMs were analysed by immunohistochemistry using an anti-NF200 antibody. Positive staining for NF200 (dark regions) indicated neurons. A, EBM^7s cultured in the absence of NGF; B, EBM^7s cultured in the presence of NGF.
as §1
as §2, with “(β-ME). The resulting cell aggregates (EBMs) were split 1:2 after 2 days and seeded into fresh DMEM containing 50% MEDII.” for “(β-ME).”
as §3

Compound | TH positive cells (anti-TH antibody staining) [1] | proportion of cells staining positive for NF200 [2]
NCCc1ccc(O)c(O)c1 [dopamine, reference compound] | significant increase | 
NGF: growth factor from the neural growth factor (NGF) family, used at 10 ng/ml | only a small proportion | significantly increased
